The values below come from patent US20120009280A1, “METHOD OF REDUCING THE RATE OF DEGRADATION OF A BIOLOGICAL MATERIAL” (Bio-Energy Ingredients Limited, priority 2009, published 2012).

Common to all, as to type: cell-based
Test [1] relates to Escherichia coli NCIMB 8545. Put plainly: Antimicrobial efficacy test of saturated aqueous solutions. The note with it: for Corrected count cfu/mL: saturated aqueous solution, inoculum (t = 0) 6.95 × 10^8, replicates A, B; for colonies on plates: saturated solution. As to the method:
Escherichia coli NCIMB 8545 was subcultured onto TSA and the plates incubated at 30-35° C. for approximately 24 hours. After this time, surface growth was harvested and directly suspended into sterile distilled water and standardised to give 30-45% light transmission at 520 nm on a Jenway 6105 Spectrophotometer—an approximate yield of 2 (10^8) cfu/ml. A 0.1 ml aliquot of this suspension was inoculated into 9.9 ml of CaOH solution. This was performed in duplicate. At the same time, 1 ml of bacterial suspension was removed from the original stock suspension and placed into 9 ml PBS to perform the initial (Time 0) count. The inoculated calcium hydroxide suspensions were then shaken for one hour at room temperature. After this time 1 ml samples of the bacterial suspension were removed from the test containers and placed into 9 ml PBS. For each diluted sample, further serial ten-fold dilutions in PBS down to 10^−5 were made and then used to prepare duplicate 1 ml pour plate counts in TSA. Pour plates were also prepared from the neat (undiluted) sample. The plates were incubated at 30-35° C. for approximately 24 hours. Following incubation, the plates were counted. Optimally, plates with counts of 30-300 colonies were used to calculate the counts at each sampling time.
Escherichia coli NCIMB 8545 was subcultured onto TSA and the plates incubated at 30-35° C. for approximately 24 hours. After this time, surface growth was harvested and directly suspended into sterile distilled water and standardised to give 30-45% light transmission at 520 nm on a Jenway 6105 Spectrophotometer—an approximate yield of 2×10^8 cfu/ml. […] […]. At the same time, 1 ml of bacterial suspension was removed from the original stock suspension and placed into 9 ml PBS to perform the initial (Time 0) count. The inoculated suspensions were then shaken for one hour at room temperature. After both 10 minutes and one hour, 1 ml samples of the bacterial suspension were removed from the test containers and placed into 9 ml PBS. For each diluted sample, further serial ten-fold dilutions in PBS down to 10^−6 were made and then used to prepare duplicate 1 ml pour plate counts in TSA. Pour plates were also prepared from the neat (undiluted) sample. The plates were incubated at 30-35° C. for approximately 24 hours.
(§1) Following incubation, the plates were counted. Optimally, plates with counts of 30-300 colonies were used to calculate the counts at each sampling time.
(§2) Escherichia coli NCIMB 8545 and Salmonella abony NCTC 6017 were subcultured onto Tryptone Soya Agar (TSA) and the plates incubated at 30-35° C. for approximately 24 hours. Clostridium difficile ATCC 43255 was subcultured onto Fastidious Anaerobe Agar (FAA)+5% defibrinated horse blood and the plates incubated at 30-35° C. for approximately 48 hours. After this time, surface growth was harvested and directly suspended into sterile distilled water and standardised to give 30-45% light transmission at 520 nm on a Jenway 6105 Spectrophotometer—an approximate yield of 2×10^8 cfu/ml. […] […]. At the same time, 1 ml of bacterial suspension was removed from the original stock suspensions and placed into 9 ml PBS to perform the initial (Time 0) count. The inoculated suspensions were then shaken for ten minutes at room temperature. After 1 and 10 minutes, 1 ml samples of the bacterial suspensions were removed from the test containers and placed into 9 ml PBS. For each diluted sample, further serial ten-fold dilutions in PBS down to 10^−5 were made and then used to prepare duplicate 1 ml pour plate counts in TSA. Pour plates were also prepared from the neat (undiluted) sample. For Clostridium difficile, 0.1 ml spread plates were prepared on FAA instead of 1 ml pour plates due to the presence of blood in the agar. The plates were incubated at 30-35° C. for approximately 24 hours (48 hours for Clostridium difficile).

For test [2], the system named is Clostridium difficile ATCC 43255. Described as above. The note with it: for Corrected count cfu/mL: saturated aqueous solution, inoculum (t = 0) 8.20 × 10^7, replicates A, B; for reduction: saturated solution 8.35 g/L (0.037 M). The procedure: as §2, §1
A further test deals with Escherichia coli. Briefly: Spiking test of agar plates with Escherichia coli (kill versus inhibition). The note with it: for Individual count / Mean count: spiking test. As to the method:
(§3) When performing total viable counts (TVCs), the agar plates (when they were molten and containing 1 ml of the test sample dilution) were spiked with bacterial organisms (E. Coli and P. aeruginosa) of a known concentration. If the organisms grew, this would indicate that the conditions in the agar plate had not inhibited them. A control with no sample was run at the same time. […]
(§4) The plates were incubated at 30-35° C. for approximately 24 hours after which time the bacterial colonies were counted.
. […] This was performed in duplicate.

Test [3] has as its system Salmonella abony NCTC 6017. Put plainly: Antimicrobial efficacy test of saturated aqueous solutions. The procedure:
At the same time, 1 ml of bacterial suspension was removed from the original stock suspensions and placed into 9 ml PBS to perform the initial (Time 0) count. The inoculated suspensions were then shaken for ten minutes at room temperature. After 1 and 10 minutes, 1 ml samples of the bacterial suspensions were removed from the test containers and placed into 9 ml PBS. For each diluted sample, further serial ten-fold dilutions in PBS down to 10^−5 were made and then used to prepare duplicate 1 ml pour plate counts in TSA. Pour plates were also prepared from the neat (undiluted) sample. For Clostridium difficile, 0.1 ml spread plates were prepared on FAA instead of 1 ml pour plates due to the presence of blood in the agar. The plates were incubated at 30-35° C. for approximately 24 hours (48 hours for Clostridium difficile).
as §1

In a further test the test system is Pseudomonas aeruginosa. Briefly: Spiking test of agar plates with Pseudomonas aeruginosa (kill versus inhibition). The note with it: treated sample with 5% (w/w) calcium oxide, Day 9, all sample dilutions. The procedure: as §3, §4
For a further test, the system named is total micro-organism. Put plainly: Total microbial (plate) count of spent brewer's / wet distiller's grains stored at ambient temperature. The note with it: dose 10% w/w; distiller's grains not de-watered, Examples 16-18.
Setting [4] is: 10 minutes incubation, Example 13.
Setting [5] is: 10 minutes incubation, time 0 count 4.00×10^6 cfu/ml, Example 12.
Where [6] appears, read: one hour incubation, time 0 count 4.00×10^6 cfu/ml, Example 12.
Setting [7] is: E. coli NCIMB 8545, dilution −1 in PBS.
Where [8] appears, read: E. coli NCIMB 8545, dilution −2 in PBS.
Setting [9] is: E. coli NCIMB 8545, dilution −3 in PBS.
Where [10] appears, read: E. coli NCIMB 8545, dilution −4 in PBS.
Where [11] appears, read: E. coli NCIMB 8545, dilution −5 in PBS.
[12] abbreviates: E. coli NCIMB 8545, saturated solution Neat (control mean 215).

Each structure is given as a SMILES string. Where “and” joins values, the source holds several entries; their conditions need not be identical. Equal values may be shown once. Some results are limits rather than exact numbers.

For the molecule `[Ca+2].[O-]CC(O)CO.[O-]CC(O)CO` [calcium diglyceroxide], the “Corrected count cfu/mL” value was 0 cfu/mL and 1 cfu/mL in test [1] (one minute treatment); 1.30 × 10^3 cfu/mL and 7.00 × 10^2 cfu/mL in test [2] (one minute treatment); 85 cfu/mL and 50 cfu/mL in test [2] (ten minute treatment). Besides, the reduction in test [1] (saturated solution 8.35 g/L (0.037 M), one minute treatment) is not below 4 log10; in test [2] (one minute treatment), not below 4 log10; in test [2] (ten minute treatment) it was 6 log10. For the same molecule, the colonies on plates entry in test [1] (setting [4]), in test [1] (setting [5]) and in test [1] (setting [6]) was “No colonies” in each case.
Regarding `[Ca+2].[OH-].[OH-]` [calcium hydroxide], the Individual count in the test on Escherichia coli (setting [7]) is 197 and 209; in the test with Escherichia coli (setting [8]), 194 and 203; in the test with Escherichia coli (setting [9]), 192 and 240; in the test on Escherichia coli (setting [10]), 194 and 196; in the test with Escherichia coli (setting [11]), 235 and 194; with Escherichia coli (setting [12]), 216 and 191. Besides, the Mean count in the test on Escherichia coli (setting [7]) stood at 203; with Escherichia coli (setting [8]), 199; in the test on Escherichia coli (setting [9]), 216; in the test with Escherichia coli (setting [10]), 195; in the test on Escherichia coli (setting [11]) it was 215; in the test with Escherichia coli (setting [12]), 205. Moreover, the “Corrected count cfu/mL” value in test [1] (one minute treatment) is 1.35 × 10^6 cfu/mL and 1.23 × 10^5 cfu/mL; in test [3] (saturated aqueous solution, one minute treatment, inoculum (t = 0) 7.00 × 10^8, replicates A, B), 59 cfu/mL and 11 cfu/mL; in test [2] (one minute treatment), 8.50 × 10^2 cfu/mL and 9.50 × 10^2 cfu/mL; in test [2] (ten minute treatment) it was 1.10 × 10^2 cfu/mL and 1.20 × 10^2 cfu/mL. Also, the colonies on plates result in test [1] (setting [4]) is “No colonies”; in test [1] (setting [5]), “No colonies”; in test [1] (setting [6]) it was “No colonies”; in test [3] (saturated solution, 10 minutes incubation) it was “No colonies”.
As for `[O]=[Ca]` [calcium oxide], the “inhibitory effect on test organism in spiking test” value with Escherichia coli (treated sample with 5% (w/w) calcium oxide, Day 9, all sample dilutions) is on record as “did not demonstrate an inhibitory effect”; in the test with Pseudomonas aeruginosa, “did not demonstrate an inhibitory effect”. Further, the “preservation time with total microbial counts <100 cfu/g” value in the test on total micro-organism is “≧9 weeks”. In the test with total micro-organism, the “preservation time with total microbial counts <1000 cfu/g” value was “≧9 weeks”.
